In patent publication US20130183257A1, “COMPOSITIONS AND METHODS FOR IMPROVING SKIN APPEARANCE” (SYTHEON LTD., priority 2009, published 2013):
Marks after values point to notes of the source that are not given here.

Experiment: Solubility study of solid ingredients in DOI and co-solvent
Assay type: physicochemical
Description: Noting the surprising ease with which the various phases incorporating the DOI were prepared, a study was conducted to evaluate whether the DOI was acting as or solvent for or aiding in the solubility of certain of the solid ingredients with which it was combined. In this particular evaluation, the solubility of two solid sunscreen actives, butyl methoxydibenzoylmethane (avobenzone) and benzophenone-3 (“BP3”), and another solid cosmetic active, hexylresorcinol (“HR”) were evaluated in DOI. Additionally, the solubility of avobenzone was further evaluated in C12-C15 alkylbenzoate (“AB”) and in the combination of DOI and C12-C15 alkylbenzoate (70:30)—avobenzone being the sunscreen active and C12-C15 alkylbenzoate a co-solvent of the Sunscreen Formulation of Example 5C above. Each solution was prepared by warming 10 grams of the solvents to ˜45° C., adding the avobenzone and stirring the mixture for at least 20 min to make sure the all of the solid is solubilized. The solutions were then allowed to stand at room temp (˜25 C) and then visually examined for signs of crystal formation at 18 hours and 24 hours. Percent solubility was then calculated.

[1] = room temp (~25 C), visual examination

C12-C15 alkylbenzoate [AB]
Solubility of Avobenzone in the solvent (dissolved at ~45° C., standing at room temp (~25 C)): 23%* | Avobenzone crystal formation, 18 hours [1]: yes | Avobenzone crystal formation, 24 hours [1]: yes
